# Patent publication US8959984B2, “Proteome-wide quantification of small molecule binding to cellular target proteins” (priority 2007, dated 2015)
# pKd: −log10 of the molar value. Where two headings read alike, the source gives them in different places.
# Columns and labels:
# JNK2, RIPK2, ERK2, ROCK2 = experiment: immunoblot of IVA1/IVA2 eluates from V16742 matrix, HeLa lysate; type: binding, human
# Procedure: The proteins retained on the beads were immunoblotted with specific antibodies for JNK2, RIPK2, ERK2 and ROCK2, the targets with affinities ranging from high to very low as identified/predicted by mass spectrometry.
# Immunoblotting of affinity chromatography eluates from either IVA1 or IVA2 setting was performed with the following antibodies: Rabbit anti-casein kinase Iα, Rabbit anti-JNK2, Rabbit anti-ROCK-II (all from Cell Signaling Technology, Inc.), anti-GSK3β, anti-RIPK2, anti-GAK, anti-ERK2 (Santa Cruz)
# p38a = target: T1, p38a (Homo sapiens, UniProt Q16539); experiment: binding to immobilized V16742 (IVA1/IVA2, HeLa lysate, MS); conditions: p38a (IPI00221141.2)
# T1 construct: endogenous in cells; host or cells: HeLa S3
# T1 sequence (Q16539 whole entry): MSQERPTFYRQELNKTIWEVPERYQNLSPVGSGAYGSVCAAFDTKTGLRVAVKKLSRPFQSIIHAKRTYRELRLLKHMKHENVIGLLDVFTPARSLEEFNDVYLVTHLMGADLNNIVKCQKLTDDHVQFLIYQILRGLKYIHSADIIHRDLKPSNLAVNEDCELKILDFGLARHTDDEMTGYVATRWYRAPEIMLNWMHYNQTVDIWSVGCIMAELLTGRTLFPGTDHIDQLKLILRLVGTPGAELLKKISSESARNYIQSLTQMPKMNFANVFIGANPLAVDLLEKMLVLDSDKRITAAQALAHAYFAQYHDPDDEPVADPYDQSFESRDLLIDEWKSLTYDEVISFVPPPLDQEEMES
# Erk1 = Erk1 (Homo sapiens, UniProt P27361); experiment: as above
# Erk1, sequence (P27361 whole entry): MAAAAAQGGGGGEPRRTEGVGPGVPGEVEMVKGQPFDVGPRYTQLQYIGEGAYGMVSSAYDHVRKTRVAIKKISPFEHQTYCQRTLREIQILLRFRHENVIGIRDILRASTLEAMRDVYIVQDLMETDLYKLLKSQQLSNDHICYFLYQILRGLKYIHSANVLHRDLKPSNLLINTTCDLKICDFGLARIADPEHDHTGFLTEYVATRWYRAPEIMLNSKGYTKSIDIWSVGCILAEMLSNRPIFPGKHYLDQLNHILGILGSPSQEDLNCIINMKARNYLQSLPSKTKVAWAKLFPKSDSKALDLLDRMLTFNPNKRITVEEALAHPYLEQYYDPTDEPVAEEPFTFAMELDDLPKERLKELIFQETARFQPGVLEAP
# EphB4 = EphB4 (Homo sapiens, UniProt P54760); experiment: as above
# EphB4, sequence (P54760 16-987): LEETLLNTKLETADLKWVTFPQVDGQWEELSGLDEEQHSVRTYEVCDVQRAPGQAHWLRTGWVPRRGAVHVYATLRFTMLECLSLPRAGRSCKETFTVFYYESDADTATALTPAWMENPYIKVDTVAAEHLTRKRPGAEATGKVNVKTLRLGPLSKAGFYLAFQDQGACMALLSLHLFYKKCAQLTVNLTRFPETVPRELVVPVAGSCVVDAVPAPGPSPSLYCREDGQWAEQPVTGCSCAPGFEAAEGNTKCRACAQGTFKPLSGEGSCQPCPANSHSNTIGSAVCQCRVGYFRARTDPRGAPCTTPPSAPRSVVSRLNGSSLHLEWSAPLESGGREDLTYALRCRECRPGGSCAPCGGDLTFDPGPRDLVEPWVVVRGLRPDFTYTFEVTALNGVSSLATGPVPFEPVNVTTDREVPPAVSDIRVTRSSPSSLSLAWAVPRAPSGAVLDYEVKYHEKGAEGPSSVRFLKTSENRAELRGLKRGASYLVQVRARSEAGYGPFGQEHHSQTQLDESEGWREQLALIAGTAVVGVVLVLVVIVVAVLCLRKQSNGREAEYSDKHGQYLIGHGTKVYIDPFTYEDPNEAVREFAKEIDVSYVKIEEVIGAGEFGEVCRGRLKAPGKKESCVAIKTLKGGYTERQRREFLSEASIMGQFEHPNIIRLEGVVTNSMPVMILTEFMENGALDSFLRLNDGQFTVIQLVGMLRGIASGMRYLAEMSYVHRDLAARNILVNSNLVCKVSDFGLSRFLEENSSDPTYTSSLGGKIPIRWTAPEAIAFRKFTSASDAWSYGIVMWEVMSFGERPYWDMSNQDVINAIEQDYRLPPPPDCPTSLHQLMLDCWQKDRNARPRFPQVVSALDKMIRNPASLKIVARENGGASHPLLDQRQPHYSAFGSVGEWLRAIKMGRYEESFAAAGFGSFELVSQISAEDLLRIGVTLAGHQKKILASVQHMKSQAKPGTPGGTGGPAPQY
# NAMPT = NAMPT (Homo sapiens, UniProt P43490)
# NAMPT, sequence (P43490 whole entry): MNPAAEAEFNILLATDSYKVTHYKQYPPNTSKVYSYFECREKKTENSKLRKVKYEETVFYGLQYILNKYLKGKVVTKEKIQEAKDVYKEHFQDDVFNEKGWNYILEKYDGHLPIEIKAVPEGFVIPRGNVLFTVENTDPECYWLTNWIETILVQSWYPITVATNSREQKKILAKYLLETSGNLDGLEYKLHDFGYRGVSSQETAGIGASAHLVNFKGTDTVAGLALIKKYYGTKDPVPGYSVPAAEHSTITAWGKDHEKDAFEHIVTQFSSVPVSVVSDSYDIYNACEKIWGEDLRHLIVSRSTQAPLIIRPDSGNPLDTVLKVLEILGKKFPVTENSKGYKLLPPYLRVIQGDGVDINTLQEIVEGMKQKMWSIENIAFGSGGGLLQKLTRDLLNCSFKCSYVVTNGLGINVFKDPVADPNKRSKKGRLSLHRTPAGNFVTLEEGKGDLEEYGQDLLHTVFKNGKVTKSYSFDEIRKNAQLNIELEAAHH
# ACAD10 = target: T2, ACAD10 (Homo sapiens, UniProt Q6JQN1)
# T2 sequence (Q6JQN1 1-1059): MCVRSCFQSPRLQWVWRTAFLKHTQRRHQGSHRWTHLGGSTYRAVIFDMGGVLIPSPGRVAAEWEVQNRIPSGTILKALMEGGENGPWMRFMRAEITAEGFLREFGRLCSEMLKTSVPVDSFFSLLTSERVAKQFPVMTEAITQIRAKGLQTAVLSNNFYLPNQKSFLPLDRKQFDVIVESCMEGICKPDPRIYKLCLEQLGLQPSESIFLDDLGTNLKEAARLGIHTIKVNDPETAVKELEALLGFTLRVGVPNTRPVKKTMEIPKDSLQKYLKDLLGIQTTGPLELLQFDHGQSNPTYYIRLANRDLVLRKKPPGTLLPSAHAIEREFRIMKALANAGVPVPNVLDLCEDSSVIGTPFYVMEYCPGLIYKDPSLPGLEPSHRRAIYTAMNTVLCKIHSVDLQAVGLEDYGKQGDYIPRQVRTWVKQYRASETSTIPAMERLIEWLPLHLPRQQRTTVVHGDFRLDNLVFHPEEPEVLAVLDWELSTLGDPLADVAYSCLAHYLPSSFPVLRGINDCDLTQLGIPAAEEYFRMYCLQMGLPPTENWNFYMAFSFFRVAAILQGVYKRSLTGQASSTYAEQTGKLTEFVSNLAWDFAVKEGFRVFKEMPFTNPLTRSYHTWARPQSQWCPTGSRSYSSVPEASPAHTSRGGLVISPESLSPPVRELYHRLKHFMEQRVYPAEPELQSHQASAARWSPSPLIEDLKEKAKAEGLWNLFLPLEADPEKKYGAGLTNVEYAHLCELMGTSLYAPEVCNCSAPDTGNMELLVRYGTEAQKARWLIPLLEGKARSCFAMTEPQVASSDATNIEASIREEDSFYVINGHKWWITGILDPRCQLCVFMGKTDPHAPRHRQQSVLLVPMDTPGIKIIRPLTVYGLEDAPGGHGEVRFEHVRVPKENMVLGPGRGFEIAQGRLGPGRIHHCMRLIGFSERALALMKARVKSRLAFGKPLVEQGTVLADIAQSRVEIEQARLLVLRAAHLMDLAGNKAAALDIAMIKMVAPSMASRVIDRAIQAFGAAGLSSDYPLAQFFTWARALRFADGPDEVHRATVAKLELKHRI
# SPR = SPR (Homo sapiens, UniProt P35270)
# SPR, sequence (P35270 whole entry): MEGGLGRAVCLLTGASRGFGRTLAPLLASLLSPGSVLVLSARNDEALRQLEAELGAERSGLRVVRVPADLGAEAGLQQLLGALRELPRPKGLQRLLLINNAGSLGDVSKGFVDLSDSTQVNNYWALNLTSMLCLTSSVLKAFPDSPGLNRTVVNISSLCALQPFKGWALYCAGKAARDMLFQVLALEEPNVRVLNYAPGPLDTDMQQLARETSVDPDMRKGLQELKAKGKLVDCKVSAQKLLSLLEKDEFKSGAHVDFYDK
structure (smiles),measurement,setting,value
CC(C)n1c(=O)ccc2cnc(Nc3ccc(OCCN)cc3)nc21 [V16742],"interaction of kinases with V16742 matrix, immunoblot","JNK2, RIPK2, ERK2, ROCK2",specifically interacted with the V16742 matrix
same,Percent bound at various 16742 conc,"p38a; Experiment 1, 1.87 μM 16742",4.98%
same,Percent bound at various 16742 conc,"p38a; Experiment 1, 8.74 μM 16742",6.72%
same,Percent bound at various 16742 conc,"p38a; Experiment 1, 52 μM 16742",49.78%
same,pKd,"p38a; Experiment 1, read-out: Kd",4.23
same,Percent bound at various 16742 conc,"p38a; Experiment 2, 1.87 μM 16742",3.02%
same,Percent bound at various 16742 conc,"p38a; Experiment 2, 8.74 μM 16742",1.43%
same,Percent bound at various 16742 conc,"p38a; Experiment 2, 52 μM 16742",24.52%
same,pKd,"p38a; Experiment 2, read-out: Kd",3.78
same,pKd,"p38a; average of two experiments, read-out: Kd Avg",3.95
same,pKd,Erk1,4.24
same,Percent bound at various 16742 conc,"Erk1; Erk1, Experiment 1, 1.87 μM 16742",1.06%
same,Percent bound at various 16742 conc,"Erk1; Erk1, Experiment 1, 8.74 μM 16742",2.41%
same,Percent bound at various 16742 conc,"Erk1; Erk1, Experiment 1, 52 μM 16742",52.52%
same,Percent bound at various 16742 conc,"Erk1; Erk1, Experiment 2, 1.87 μM 16742",0.91%
same,Percent bound at various 16742 conc,"Erk1; Erk1, Experiment 2, 8.74 μM 16742",2.38%
same,Percent bound at various 16742 conc,"Erk1; Erk1, Experiment 2, 52 μM 16742",45.83%
same,pKd,"Erk1; Kd Avg, Erk1, average of two experiments",4.19
same,pKd,"Erk1; Kd, Erk1, Experiment 2",4.15
same,pKd,"Erk1; Kd, Erk1, immobilized V16742",4.19
CC(C)n1c(=O)ccc2cnc(Nc3ccc(OCCN)cc3)nc21 [compound 16742],Percent bound at 1.87 μM 16742 conc,EphB4; EXPERIMENT 1,3.95%
same,Percent bound at 8.74 μM 16742 conc,EphB4; EXPERIMENT 1,18.14%
same,Percent bound at 52 μM 16742 conc,EphB4; EXPERIMENT 1,61.05%
same,pKd,"EphB4; EXPERIMENT 1, read-out: Kd",4.45
same,Percent bound at 1.87 μM 16742 conc,EphB4; EXPERIMENT 2,2.71%
same,Percent bound at 8.74 μM 16742 conc,EphB4; EXPERIMENT 2,12.85%
same,Percent bound at 52 μM 16742 conc,EphB4; EXPERIMENT 2,50.80%
same,pKd,"EphB4; EXPERIMENT 2, read-out: Kd",4.28
same,pKd,EphB4; read-out: Kd Avg,4.36
COc1cc2ncnc(Nc3ccc(F)c(Cl)c3)c2cc1OCCCN1CCOCC1 [gefitinib],rAVERAGE (10 nM/0 nM Gef.),NAMPT,0.71
same,rAVERAGE (100 nM/0 nM Gef.),NAMPT,0.74
same,rAVERAGE (1000 nM/0 nM Gef.),NAMPT,0.73
same,rAVERAGE (10000 nM/0 nM Gef.),NAMPT,0.92
same,rAVERAGE (10 nM/0 nM Gef.),ACAD10,1.17
same,rAVERAGE (100 nM/0 nM Gef.),ACAD10,0.86
same,rAVERAGE (1000 nM/0 nM Gef.),ACAD10,1.07
same,rAVERAGE (10000 nM/0 nM Gef.),ACAD10,0.24
same,rAVERAGE (10 nM/0 nM Gef.),SPR,1.04
same,rAVERAGE (100 nM/0 nM Gef.),SPR,1.10
same,rAVERAGE (1000 nM/0 nM Gef.),SPR,1.01
same,rAVERAGE (10000 nM/0 nM Gef.),SPR,0.77
